Assay results taken from US20210284742A1, “METHODS OF TREATING OR PREVENTING MUCORMYCOSIS” (University of Maryland, Baltimore, priority 2018, published 2021).

Assays:
PGR = PGR translocation to the nucleus during R. delemar infection (confocal microscopy); type: cell-based, human; conditions: A549 cells pretreated with Gefitinib 1 h, R. delemar infection 2 h (FIG. 16)
Description: Translocation of host PGR was visualized using the Zeiss LSM Duo confocal microscopy system. 12-mm glass coverslips in 12 well dishes were seeded with A549 alveolar epithelial cells and infected with 2×10^5 R. delemar or R. oryzae that have been incubated in F12K+10% FBS at 37° C. for 2 h. After a 2 h incubation at 37° C., cells were washed with HBSS and fixed with 3% paraformaldehyde. Cells were incubated with anti-PGR (Aviva MS-196-P1, recognizes B) for 1 h or overnight in 0.1% BSA for 1 hour. Coverslips were washed and counterstained with Alexa Fluor 546-labeled goat anti-rabbit or Alexa Fluor 488-goat anti-mouse. After washing, the coverslip will be mounted on a glass slide with a drop of ProLong Gold antifade reagent (Molecular Probes) and viewed by confocal fluorescent microscopy.

R. delemar [1] = assay: Tissue fungal burden of lungs and brains by qPCR in neutropenic mice; type: in vivo; conditions: 10 mg/kg starting 4 h post infection through Day +3, organs collected Day +4, qPCR
Description: Murine models of Mucormycosis. Male ICR mice (20-25 g from Envigo) were immunosuppresed by cyclophosphamide (200 mg/kg administered intraperotenually [i.p]) and cortisone acetate (500 mg/kg, adminstered subcutaneously) given on days −2, +3, and +9 relative to infection. […] To control for bacterial infection, immunosuppressed mice received 50 mg/L Baytrial (enrofloxacin: Bayer, Leverkusen, Germany) ad libitum on Day −3 thorough Day 0, after which Baytril was replaced with daily ceftazidime (5 mg/mouse) treatment adminstered subcutaneously through day+13 days post infection. […] On Day +4, mice were sacrificed and lungs and brains, representing primary and secondary target organs (Luo G, Gebremariam T, Lee H, French S W, Wiederhold N P, Patterson T F, Filler S G, Ibrahim A S. 2013. Efficacy of liposomal amphotericin B and posaconazole in intratracheal models of murine mucormycosis. Antimicrobial agents and chemotherapy 57:3340-7), were collected and processed for tissue fungal burden by qPCR (Ibrahim A S, Bowman J C, Avanessian V, Brown K, Spellberg B, Edwards J E, Jr., Douglas C M. 2005. Caspofungin inhibits Rhizopus oryzae 1,3-beta-D-glucan synthase, lowers burden in brain measured by quantitative PCR, and improves survival at a low but not a high dose during murine disseminated zygomycosis. […]
Statistical Analyses. […] Data were expressed as median±interquartile range. […]

R. delemar [2] = assay: Growth / germination of R. delemar in the absence of host cells; type: cell-based
R. delemar [3] = assay: Neutropenic mouse model of pulmonary mucormycosis, survival; type: in vivo, mice; conditions: for protection from pulmonary mucormycosis (survival): 10 mg/kg for 5 consecutive days starting 4 h post infection; for protection from pulmonary mucormycosis, delayed administration: treatment delayed for 30 h post infection, administered alone
Description: Murine models of Mucormycosis. Male ICR mice (20-25 g from Envigo) were immunosuppresed by cyclophosphamide (200 mg/kg administered intraperotenually [i.p]) and cortisone acetate (500 mg/kg, adminstered subcutaneously) given on days −2, +3, and +9 relative to infection. […] To control for bacterial infection, immunosuppressed mice received 50 mg/L Baytrial (enrofloxacin: Bayer, Leverkusen, Germany) ad libitum on Day −3 thorough Day 0, after which Baytril was replaced with daily ceftazidime (5 mg/mouse) treatment adminstered subcutaneously through day+13 days post infection. Mice were infected with 2.5×10^5 spores of R. delemar 99-880 in 25 μL PBS given intratracheally as previously described (Luo G, Gebremariam T, Lee H, French S W, Wiederhold N P, Patterson T F, Filler S G, Ibrahim A S. 2013. Efficacy of liposomal amphotericin B and posaconazole in intratracheal models of murine mucormycosis. Antimicrobial agents and chemotherapy 57:3340-7). […] Placebo mice received DMA:PEG300. Survival of mice served as the primary endpoint with moribund mice humanely euthanized. To determine effect of treatment on tissue fungal burden mice were immunosuppressed and infected as above. Gefitinib treatment started 4 post infection and continued through Day +3. On Day +4, mice were sacrificed and lungs and brains, representing primary and secondary target organs (Luo G, Gebremariam T, Lee H, French S W, Wiederhold N P, Patterson T F, Filler S G, Ibrahim A S. 2013. Efficacy of liposomal amphotericin B and posaconazole in intratracheal models of murine mucormycosis. Antimicrobial agents and chemotherapy 57:3340-7), were collected and processed for tissue fungal burden by qPCR (Ibrahim A S, Bowman J C, Avanessian V, Brown K, Spellberg B, Edwards J E, Jr., Douglas C M. 2005. Caspofungin inhibits Rhizopus oryzae 1,3-beta-D-glucan synthase, lowers burden in brain measured by quantitative PCR, and improves survival at a low but not a high dose during murine disseminated zygomycosis. Antimicrobial agents and chemotherapy 49:721-7.) Values are expressed as Log10 spore equivalents per gram tissue.
Statistical Analyses. In vitro experiments were performed in triplicate on two or three separate days. Data were expressed as median±interquartile range. Treatment groups were compared to controls using the Wilcoxon rank-sum test and P values <0.05 were considered significant. For the murine studies, survival of mice was analyzed using the Log Rank test, whereas differences in tissue fungal burden were analyzed by the Wilcoxon Rank Sum test using Graph pad Prism 6. P values of <0.05 were considered significant.

[4] = system: A549 cells infected with M. circinelloides; assay: M. circinelloides-induced damage of A549 cells (LDH assay); type: cell-based, human; conditions: 25 μM Mifepristone overnight and/or 25 μM Gefitinib 1 h, 24 h infection (FIG. 14)
[5] = neutropenic mice infected intratracheally, 10 mg/kg i.p. for 5 consecutive days starting 4 h post infection

SMILES: COc1cc2ncnc(Nc3ccc(F)c(Cl)c3)c2cc1OCCCN1CCOCC1 [Gefitinib]
- translocation of PGR from the cytosol to the nucleus (PGR): reduced
- reduction in fungal burden in organs (lungs and brains) compared to placebo-treated mice (R. delemar [1]): ~1 log
- R. delemar mycelial growth (R. delemar [2]): no effect
- protection from pulmonary mucormycosis (survival) (R. delemar [3]): protects mice from pulmonary mucormycosis
- protection from pulmonary mucormycosis (survival) (R. delemar [3]; listed as gefitinib): protected
- 18-day survival (R. delemar [3]; delayed treatment beginning 30 h post infection for 6 consecutive days, 10 mg/kg gefitinib, 20 mg/kg posaconazole or both): ~30%
- median survival time (R. delemar [3]; [5]): > 21 days
- mice survived the infection by Day 21 (R. delemar [3]; [5]): 55%
- protection from pulmonary mucormycosis, delayed administration (R. delemar [3]): protects mice from pulmonary mucormycosis
- protection from pulmonary mucormycosis, delayed administration (R. delemar [3]; listed as gefitinib): protected mice from pulmonary mucormycosis
- M. circinelloides-induced damage [4]: significantly decreased
